Like-named read-outs stand apart in the source and are kept apart here.
What was measured:
[1] = Plasma pharmacokinetics in patients (LC-MS, noncompartmental analysis); format: in vivo, human; conditions: for AUC(0-inf) / AUC(0-t) / Cmax / Tmax / half-life: plasma, oral
Description: For PK analysis, 58 blood samples (∼5 ml each) were obtained from an indwelling intravenous cannula and collected in vials containing lithium heparin as anticoagulant. The samples were taken immediately before dosing, 30 min and 1, 1.5, 2, 3, 4, 6, 8 and 10 h after administration of the drug on days 1 and 4 (or 5) of the first and second courses. Additional samples were taken immediately prior to dosing on days 2, 3, 4 and 5, and 24, 48, 72, 144 and 312 h after the dose administration on day 5, both in the first and second cycles. From the third cycle onwards, PK samples were taken prior to dosing on day 5 to measure the potential accumulation of XR11576.
(§1) All samples were centrifuged immediately after sampling at 3000 r.p.m. for 10 min at 4°C and the plasma was stored at −20°C or lower in polypropylene tubes in the dark until analysis. A total of four urine samples were also collected over a 24-h period; 0–4, 4–8, 8–12 and 12–24 h post-dosing on day 1 of the first cycle only. Of the total amount collected, a measured quantity of 10 ml was drawn off and stored at −80°C until analysis. Concentrations of XR11576 in plasma were determined according to a validated liquid chromatography-mass spectrometry detection method with liquid–liquid extraction at the Drug Metabolism and Pharmacokinetics Department of Quintiles Limited (Internal Report at Quintiles). The lower limit of quantitation was 5 ng ml^−1.
The apparent terminal half-life (T1/2(z)) of XR11576 was calculated as ln 2/k, where k is the terminal elimination rate constant (expressed in h^−1). The peak plasma concentrations (Cmax) and the time to peak plasma concentration (Tmax) were determined from the experimental values. The areas under the plasma concentration–time curve (AUC) of XR11576 were estimated using the experimental values (trapezoidal rule) with extrapolation to infinity (AUC0–∞) using the apparent terminal rate constant, defined as the slope of the final three to four data points of the log-linear concentration–time plot. The total body clearance (CL) was calculated as the ratio between the administered dose and the AUC0–∞. The extent of accumulation (R0) in plasma was calculated from AUC0–24 h (days 4 or 5)/AUC0–24 h (day 1). The fraction of the administered dose (Fe) excreted in urine and the cumulative amount of XR11576 excreted in urine (Ae) was determined. PK data analysis was carried out using a noncompartmental analysis approach with the aid of WinNonlin Version Pron4.0.1 (Pharsight, Cary NC 27511).
A nonlinear power model was used to assess dose proportionality separately for each day during cycles 1 and 2. Statistical analyses were performed using SAS version 8.1.

[2] = Urinary excretion in patients; format: in vivo, human; conditions: within 24 h after drug administration
Description: as §1
The apparent terminal half-life (T1/2(z)) of XR11576 was calculated as ln 2/k, where k is the terminal elimination rate constant (expressed in h^−1). The peak plasma concentrations (Cmax) and the time to peak plasma concentration (Tmax) were determined from the experimental values. […] The total body clearance (CL) was calculated as the ratio between the administered dose and the AUC0–∞. The extent of accumulation (R0) in plasma was calculated from AUC0–24 h (days 4 or 5)/AUC0–24 h (day 1). The fraction of the administered dose (Fe) excreted in urine and the cumulative amount of XR11576 excreted in urine (Ae) was determined. […]

advanced solid tumours = assay: Tumour evaluation according to RECIST; format: in vivo, human
Description: Before treatment, a complete medical history was recorded and a physical examination performed. A complete blood count (CBC) including white blood cell differential and serum biochemistry, which involved sodium, potassium, calcium, urea, creatinine, uric acid, total protein, albumin, total bilirubin, alkaline phosphatase, γ-glutamyl transferase, aspartate aminotransferase, alanine aminotransferase, lactate dehydrogenase and glucose, were performed, as were urinalysis, pregnancy test, relevant tumour markers, electrocardiogram and a chest X-ray. The electrocardiogram was also performed 2 and 24 h after the first drug administration in the first and second cycles. Weekly evaluations included history, physical examination, toxicity assessment according to the CTC criteria version 2.0, and serum chemistries. Complete blood count was determined twice weekly. Tumour evaluation was performed after every two courses according to the Response Evaluation Criteria in Solid Tumours (RECIST) ([Therasse et al, 2000]). Patients were taken off protocol at the onset of disease progression.

dogs = conditions: cited from earlier work
animals = conditions: in animals; cited from earlier work
[3] = parameters: method as in data on file, FPD 1055; conditions: ref data on file, FPD 1055; cited from earlier work
[4] = rats; cited from earlier work
[5] = dogs, cited from earlier work
[6] = system: murine and human tumour cell lines; parameters: method as in Mistry et al, 2002; Lewis et al, 2003; conditions: murine leukaemias and human colon, breast, ovarian and lung carcinoma cell lines; ref Mistry et al, 2002; Lewis et al, 2003; cited from earlier work
[7] = system: multidrug-resistant cells overexpressing P-gp or MRP, cells with downregulation of topoisomerase II levels; parameters: method as in Di Nicolantonio et al, 2002; conditions: cells overexpressing P-gp or MRP or with downregulated topoisomerase II; ref Di Nicolantonio et al, 2002; cited from earlier work
[8] = human, 30 mg day^−1, first treatment course, mean, N=3
[9] = human, 60 mg day^−1, first treatment course, mean, N=4
[10] = human, 120 mg day^−1, first treatment course, mean, N=8
[11] = human, 150 mg day^−1, first treatment course, mean, N=3
[12] = human, 180 mg day^−1, first treatment course, mean, N=3

## COc1cccc2c1ccc1nc3cccc(C(=O)N[C@H](C)CN(C)C)c3nc12 [XR11576, 4-methoxy-benzo[a]phenazine-11-carboxylic acid (2-dimethulamino-1-R-methyl-ethyl)-amide]
[1]; 30 mg day^−1, first treatment course, mean, N=3
  R0 (ratio of accumulation): 1.56
[1]; 60 mg day^−1, first treatment course, mean, N=4
  R0 (ratio of accumulation): 1.87
[1]; 120 mg day^−1, first treatment course, mean, N=8
  R0 (ratio of accumulation): 1.93
[1]; 150 mg day^−1, first treatment course, mean, N=3
  R0 (ratio of accumulation): 1.53
[1]; 180 mg day^−1, first treatment course, mean, N=3
  R0 (ratio of accumulation): 1.34
[1]; 30–180 mg day^−1
  increase of systemic exposure with dose: greater than dose-proportional
[1]; all patients
  time of maximum peak drug levels post dose: 3.69 ± 0.79 h
[1]; days 1–5 dosing
  accumulation in plasma: exposure higher by the last day of dosing: approximately two-fold
[1]; human, in vivo
  interpatient coefficients of variation in AUC values: > 100%
  relationship between apparent CL/F and BSA: no relationship
[1]; [8]
  AUC(0-inf): 50 ng·h/mL
  AUC(0-t): 36.2 ng·h/mL
  Cmax: 8.07 ng/mL
  Tmax: 2.5 h
[1]; human, 30 mg day^−1, first treatment course, mean, N=3, read-out: T1/2 (converted)
  half-life: 5.53 h
[1]; [9]
  AUC(0-inf): 517 ng·h/mL
  AUC(0-t): 178 ng·h/mL
  Cmax: 21.7 ng/mL
  Tmax: 3.5 h
[1]; human, 60 mg day^−1, first treatment course, mean, N=4, read-out: T1/2 (converted)
  half-life: 68.8 h
[1]; [10]
  AUC(0-inf): 535 ng·h/mL
  AUC(0-t): 329 ng·h/mL
  Cmax: 41.1 ng/mL
  Tmax: 3.75 h
[1]; human, 120 mg day^−1, first treatment course, mean, N=8, read-out: T1/2 (converted)
  half-life: 31.2 h
[1]; [11]
  AUC(0-inf): 2240 ng·h/mL
  AUC(0-t): 1710 ng·h/mL
  Cmax: 167 ng/mL
  Tmax: 4 h
[1]; [12]
  AUC(0-inf): 1810 ng·h/mL
  AUC(0-t): 970 ng·h/mL
  Cmax: 112 ng/mL
  Tmax: 4.67 h
[1]; human, all dose levels, read-out: mean terminal half-life
  half-life: ≤ 70 h
[2]
  administered dose excreted unchanged in urine: Less than 0.5%
Advanced solid tumours; 21 assessable patients
  objective responses: No objective responses
Advanced solid tumours; in vivo
  stable disease, median duration: 12 weeks
  stable disease, range of duration: 12–30 weeks
Advanced solid tumours; melanoma, cervical cancer and parotid cancer
  patients with stabilisation of disease: Four patients
dogs; 8/9-day oral administration schedule
  maximum tolerated dose (MTD): 200 mg m^−2
dogs; i.v. doses repeatedly administered
  toxicities observed: myocarditis and nephritis
animals
  predominantly induced toxicity: bone marrow and gastrointestinal toxicity
[3]
  cardiac toxicity: no cardiac toxicity was detected
[4]
  oral availability: 54±32%
[5]; repeated daily oral doses
  reduction in the systemic exposure: approximately 60%
[5]; single oral administration
  increase of systemic exposure with dose: more than dose-proportionally
[6]
  antitumour activity in vitro: exerted antitumour activity
[7]
  activity against resistant cells: active

Reference: article PMC2409936, “Phase I and pharmacokinetic study of XR11576, an oral topoisomerase I and II inhibitor, administered on days 1–5 of a 3-weekly cycle in patients with advanced solid tumours” (British Journal of Cancer, 2004)
